Assay results reported in ChEMBL document CHEMBL3045586, “Synthesis and antimicrobial activity of some new 4-triazolylmethoxy-2H-chromen-2-one derivatives” (2012).
Converted amounts (≈) assume the structure as drawn.

Assays:
Aspergillus niger [1] = experiment: Antifungal activity against Aspergillus niger MTCC 282 after 28 to 30 hr by serial dilution method; assay type: functional
Staphylococcus aureus [2] = experiment: Antibacterial activity against Staphylococcus aureus MTCC 096 after 16 to 18 hr by serial dilution method; assay type: functional
Klebsiella pneumoniae [3] = experiment: Antibacterial activity against Klebsiella pneumoniae MTCC 432 after 16 to 18 hr by serial dilution method; assay type: functional
Escherichia coli [4] = experiment: Bactericidal against Escherichia coli MTCC 443 after 3 days; assay type: functional; details: MTCC 443, 72 h
Pseudomonas aeruginosa [5] = assay type: functional, MTCC 424
Candida albicans [6] = experiment: Fungicidal activity against Candida albicans MTCC 227 after 3 days; assay type: functional; details: MTCC 227, 72 h
Aspergillus fumigatus [7] = experiment: Antifungal activity against Aspergillus fumigatus MTCC 343 at […] to […] ug/ml after 28 to 30 hr by cup-plate method; assay type: functional
Escherichia coli [8] = assay type: functional, MTCC 443
Salmonella typhi [9] = experiment: Antibacterial activity against Salmonella enterica subsp. enterica serovar Typhi MTCC 733 after 16 to 18 hr by serial dilution method; assay type: functional
Klebsiella pneumoniae [10] = assay type: functional, MTCC 432
Aspergillus fumigatus [11] = experiment: Antifungal activity against Aspergillus fumigatus MTCC 343 after 28 to 30 hr by serial dilution method; assay type: functional
Aspergillus niger [12] = experiment: Fungicidal activity against Aspergillus niger MTCC 282 after 3 days; assay type: functional; details: MTCC 282, 72 h
Pseudomonas aeruginosa [13] = experiment: Antibacterial activity against Pseudomonas aeruginosa MTCC 424 after 16 to 18 hr by serial dilution method; assay type: functional
Klebsiella pneumoniae [14] = experiment: Bactericidal activity against Klebsiella pneumoniae MTCC 432 after 3 days; assay type: functional; details: MTCC 432, 72 h
Staphylococcus aureus [15] = experiment: Bactericidal activity against Staphylococcus aureus MTCC 096 after 3 days; assay type: functional; details: MTCC 096, 72 h
[16] = system: Staphylococcus epidermidis; assay type: functional, MTCC 435
Bacillus subtilis [17] = experiment: Antibacterial activity against Bacillus subtilis MTCC 441 after 16 to 18 hr by serial dilution method; assay type: functional
Staphylococcus aureus [18] = assay type: functional, MTCC 096
Aspergillus flavus [19] = experiment: Antifungal activity against Aspergillus flavus MTCC 277 after 28 to 30 hr by serial dilution method; assay type: functional
Salmonella typhi [20] = experiment: Antibacterial activity against Salmonella enterica subsp. enterica serovar Typhi MTCC 733 at […] to […] ug/ml after 16 to 18 hr by cup-plate method; assay type: functional
Escherichia coli [21] = experiment: Antibacterial activity against Escherichia coli MTCC 443 after 16 to 18 hr by serial dilution method; assay type: functional
[22] = system: Staphylococcus epidermidis; experiment: Antibacterial activity against Staphylococcus epidermidis MTCC 435 after 16 to 18 hr by serial dilution method; assay type: functional
Bacillus subtilis [23] = assay type: functional, MTCC 441
Aspergillus niger [24] = experiment: Antifungal activity against Aspergillus niger MTCC 282 at […] to […] ug/ml after 28 to 30 hr by cup-plate method; assay type: functional
Candida albicans [25] = assay type: functional, MTCC 227
Candida albicans [26] = experiment: Antifungal activity against Candida albicans MTCC 227 after 28 to 30 hr by serial dilution method; assay type: functional
Aspergillus flavus [27] = experiment: Antifungal activity against Aspergillus flavus MTCC 277 at […] to […] ug/ml after 28 to 30 hr by cup-plate method; assay type: functional

Row | Compound | MIC (Aspergillus niger [1]) | MIC (Staphylococcus aureus [2]) | MIC (Klebsiella pneumoniae [3]) | inhibition zone (IZ) (Pseudomonas aeruginosa [5]) | inhibition zone (IZ) (Aspergillus fumigatus [7]) | inhibition zone (IZ) (Escherichia coli [8]) | MIC (Salmonella typhi [9]) | inhibition zone (IZ) (Klebsiella pneumoniae [10]) | MIC (Aspergillus fumigatus [11]) | MIC (Pseudomonas aeruginosa [13]) | inhibition zone (IZ) [16] | MIC (Bacillus subtilis [17]) | inhibition zone (IZ) (Staphylococcus aureus [18]) | MIC (Aspergillus flavus [19]) | inhibition zone (IZ) (Salmonella typhi [20]) | MIC (Escherichia coli [21]) | MIC [22] | inhibition zone (IZ) (Bacillus subtilis [23]) | inhibition zone (IZ) (Aspergillus niger [24]) | inhibition zone (IZ) (Candida albicans [25]) | also measured
1 | COc1cc(-c2nnc(COc3cc(=O)oc4ccccc34)[nH]2)cc(OC)c1OC | 6.25 µg/mL (≈ 15.3 µM) | 6.25 µg/mL (≈ 15.3 µM) | 12.5 µg/mL (≈ 30.5 µM) | <10 mm | 11 mm | 12 mm | 6.25 µg/mL (≈ 15.3 µM) | 11 mm | 25 µg/mL (≈ 61.1 µM) | 25 µg/mL (≈ 61.1 µM) | 12 mm | 6.25 µg/mL (≈ 15.3 µM) | 14 mm | 25 µg/mL (≈ 61.1 µM) | 14 mm | 12.5 µg/mL (≈ 30.5 µM) | 12.5 µg/mL (≈ 30.5 µM) | 14 mm | 14 mm | 12 mm | MBC (Escherichia coli [4]): 25 µg/mL (≈ 61.1 µM); MFC (Candida albicans [6]): 25 µg/mL (≈ 61.1 µM); MFC (Aspergillus niger [12]): 25 µg/mL (≈ 61.1 µM); MBC (Klebsiella pneumoniae [14]): 25 µg/mL (≈ 61.1 µM); MBC (Staphylococcus aureus [15]): 25 µg/mL (≈ 61.1 µM); MIC (Candida albicans [26]): 12.5 µg/mL (≈ 30.5 µM); inhibition zone (IZ) (Aspergillus flavus [27]): <10 mm
2 | COc1cc(-c2nnc(COc3cc(=O)oc4ccccc34)[nH]2)ccc1O | 12.5 µg/mL (≈ 34.2 µM) | 6.25 µg/mL (≈ 17.1 µM) | 6.25 µg/mL (≈ 17.1 µM) | <10 mm | 13 mm | 13 mm | 6.25 µg/mL (≈ 17.1 µM) | 15 mm | 12.5 µg/mL (≈ 34.2 µM) | 25 µg/mL (≈ 68.4 µM) | <10 mm | 12.5 µg/mL (≈ 34.2 µM) | 15 mm | 25 µg/mL (≈ 68.4 µM) | 14 mm | 6.25 µg/mL (≈ 17.1 µM) | 50 µg/mL (≈ 137 µM) | 11 mm | 12 mm | 14 mm | MBC (Escherichia coli [4]): 12.5 µg/mL (≈ 34.2 µM); MFC (Candida albicans [6]): 12.5 µg/mL (≈ 34.2 µM); MFC (Aspergillus niger [12]): 12.5 µg/mL (≈ 34.2 µM); MBC (Klebsiella pneumoniae [14]): 12.5 µg/mL (≈ 34.2 µM); MBC (Staphylococcus aureus [15]): 12.5 µg/mL (≈ 34.2 µM); MIC (Candida albicans [26]): 6.25 µg/mL (≈ 17.1 µM); inhibition zone (IZ) (Aspergillus flavus [27]): <10 mm
3 | O=c1cc(OCc2nnc(-c3ccco3)[nH]2)c2ccccc2o1 | 6.25 µg/mL (≈ 20.2 µM) | 6.25 µg/mL (≈ 20.2 µM) | 6.25 µg/mL (≈ 20.2 µM) | 11 mm | <10 mm | 15 mm | 25 µg/mL (≈ 80.8 µM) | 14 mm | 25 µg/mL (≈ 80.8 µM) | 12.5 µg/mL (≈ 40.4 µM) | <10 mm | 50 µg/mL (≈ 162 µM) | 15 mm | 12.5 µg/mL (≈ 40.4 µM) | <10 mm | 6.25 µg/mL (≈ 20.2 µM) | 25 µg/mL (≈ 80.8 µM) | <10 mm | 14 mm | 13 mm | MBC (Escherichia coli [4]): 12.5 µg/mL (≈ 40.4 µM); MFC (Candida albicans [6]): 25 µg/mL (≈ 80.8 µM); MFC (Aspergillus niger [12]): 12.5 µg/mL (≈ 40.4 µM); MBC (Klebsiella pneumoniae [14]): 25 µg/mL (≈ 80.8 µM); MBC (Staphylococcus aureus [15]): 12.5 µg/mL (≈ 40.4 µM); MIC (Candida albicans [26]): 6.25 µg/mL (≈ 20.2 µM); inhibition zone (IZ) (Aspergillus flavus [27]): 12 mm
4 | O=c1cc(OCc2nnc(-c3cccs3)[nH]2)c2ccccc2o1 | 6.25 µg/mL (≈ 19.2 µM) | 6.25 µg/mL (≈ 19.2 µM) | 6.25 µg/mL (≈ 19.2 µM) | 12 mm | 12 mm | 14 mm | 25 µg/mL (≈ 76.8 µM) | 15 mm | 12.5 µg/mL (≈ 38.4 µM) | 12.5 µg/mL (≈ 38.4 µM) | 11 mm | 12.5 µg/mL (≈ 38.4 µM) | 14 mm | 12.5 µg/mL (≈ 38.4 µM) | <10 mm | 6.25 µg/mL (≈ 19.2 µM) | 12.5 µg/mL (≈ 38.4 µM) | 11 mm | 15 mm | 15 mm | MBC (Escherichia coli [4]): 12.5 µg/mL (≈ 38.4 µM); MFC (Candida albicans [6]): 12.5 µg/mL (≈ 38.4 µM); MFC (Aspergillus niger [12]): 12.5 µg/mL (≈ 38.4 µM); MBC (Klebsiella pneumoniae [14]): 25 µg/mL (≈ 76.8 µM); MBC (Staphylococcus aureus [15]): 6.25 µg/mL (≈ 19.2 µM); MIC (Candida albicans [26]): 6.25 µg/mL (≈ 19.2 µM); inhibition zone (IZ) (Aspergillus flavus [27]): 13 mm
5 | O=c1cc(OCc2nnc(-c3ccccc3)[nH]2)c2ccccc2o1 | 12.5 µg/mL (≈ 39.1 µM) | 12.5 µg/mL (≈ 39.1 µM) | 12.5 µg/mL (≈ 39.1 µM) | 11 mm | 11 mm | 12 mm | 25 µg/mL (≈ 78.3 µM) | 11 mm | 12.5 µg/mL (≈ 39.1 µM) | 12.5 µg/mL (≈ 39.1 µM) | 12 mm | 12.5 µg/mL (≈ 39.1 µM) | 11 mm | 12.5 µg/mL (≈ 39.1 µM) | <10 mm | 12.5 µg/mL (≈ 39.1 µM) | 12.5 µg/mL (≈ 39.1 µM) | 11 mm | 13 mm | 14 mm | MIC (Candida albicans [26]): 6.25 µg/mL (≈ 19.6 µM); inhibition zone (IZ) (Aspergillus flavus [27]): 12 mm
6 | O=c1cc(OCc2nnc(-c3ccc(Cl)cc3)[nH]2)c2ccccc2o1 | 12.5 µg/mL (≈ 35.3 µM) | 12.5 µg/mL (≈ 35.3 µM) | 12.5 µg/mL (≈ 35.3 µM) | 12 mm | <10 mm | 13 mm | 12.5 µg/mL (≈ 35.3 µM) | 12 mm | 25 µg/mL (≈ 70.7 µM) | 12.5 µg/mL (≈ 35.3 µM) | <10 mm | 12.5 µg/mL (≈ 35.3 µM) | 12 mm | 12.5 µg/mL (≈ 35.3 µM) | 12 mm | 6.25 µg/mL (≈ 17.7 µM) | 50 µg/mL (≈ 141 µM) | 11 mm | 12 mm | 14 mm | MIC (Candida albicans [26]): 6.25 µg/mL (≈ 17.7 µM); inhibition zone (IZ) (Aspergillus flavus [27]): 12 mm
7 | O=c1cc(OCc2nnc(-c3ccc(Br)cc3)[nH]2)c2ccccc2o1 | 12.5 µg/mL (≈ 31.4 µM) | 12.5 µg/mL (≈ 31.4 µM) | 6.25 µg/mL (≈ 15.7 µM) | <10 mm | <10 mm | 15 mm | 12.5 µg/mL (≈ 31.4 µM) | 13 mm | 25 µg/mL (≈ 62.8 µM) | 25 µg/mL (≈ 62.8 µM) | <10 mm | 12.5 µg/mL (≈ 31.4 µM) | 11 mm | 12.5 µg/mL (≈ 31.4 µM) | 11 mm | 6.25 µg/mL (≈ 15.7 µM) | 50 µg/mL (≈ 126 µM) | 12 mm | 11 mm | 12 mm | MIC (Candida albicans [26]): 6.25 µg/mL (≈ 15.7 µM); inhibition zone (IZ) (Aspergillus flavus [27]): 12 mm
